In US4454140A, “Nasal administration of dextromethorphan” (Hoffmann-La Roche Inc., priority 1982, dated 1984):
Values joined by “and” are separate entries in the source; they are usually repeats but may differ in a detail not shown here. Equal entries are not always repeated. Where two headings read alike, the source gives them in different places.

Test: bioavailability of dextromethorphan after nasal, oral and intravenous administration (plasma levels, spectrofluorophotometric)
Type: in vivo, female beagle dogs
Conditions: for AUC(0-t) at 2 h / concentration at 1 min / concentration at 0.05 h / concentration at 0.1 h / concentration at 0.2 h / concentration at 20 min / concentration at 35 min / concentration at 55 min / concentration at 80 min / concentration at 2 h / bioavailability at 2 h / concentration at 3 h: dog, plasma, 15 mg; for AUC(0-t) at 2 h / AUC 0-120 min., Individual AUC: 15 mg/dog; for concentration at 1 min / concentration at 0.05 h / concentration at 0.1 h / concentration at 0.2 h / concentration at 20 min / concentration at 35 min / concentration at 55 min / concentration at 80 min / concentration at 2 h / concentration at 3 h / Plasma Concentration: HBr salt 15 mg/dog; for bioavailability at 2 h: relative to intravenous, 0-120 min
Protocol: The following study was undertaken to determine the bioavailability of dextromethorphan from nasal solution in comparison with the bioavailability of the drug when administered orally and intravenously.
Three female beagle dogs weighing about 10 kg each were used for the study without fasting. For nasal administration, the dogs were anaesthetized with an intravenous injection of 30 mg/kg of sodium pentobarbital, and 0.5 ml of a warm saline solution containing dextromethorphan (30 mg/ml) was then administered to the nasal cavity through the nostrils with a syringe. For oral administration, the dogs were not anaesthetized and 10 ml of a saline solution containing dextromethorphan hydrobromide (1.5 mg/ml) was administered via a stomach tube. For intravenous administration, the dogs were anaesthetized as noted above, and one ml of a saline solution containing dextromethorphan hydrobromide (15 mg/ml) was injected through the cubital vein.
After nasal, oral, and intravenous administration, blood was sampled from the cubital vein periodically. The blood sample, was centrifuged and 2.5 ml of plasma were analyzed. Plasma levels of dextromethorphan were determined spectrofluorophotometrically by a modification of the method of Ramachander, et al., J. Pharm. Sci., 66, 1047 (1977). Specifically, plasma was transferred into a glass tube, 0.5 ml of a saturated solution of sodium carbonate and 10 ml of ethyl acetate were added, and the contents shaken well. After centrifuging, an aliquot (8 ml) of the supernate was transferred into a glass tube containing 1.5 ml of 1.0N HCl, and was extracted into the acid layer after mixing well and centrifuging. The fluorescence of the acid layer was determined by a spectrofluorophotometer, Aminco-Bowman Ratio II, American Instrument Co. The excitation and emission wave lengths were 278 nm and 306 nm, respectively. Recovery of known amounts of dextromethorphan spiked with dog plasma was 50% of the added concentration. For calculating the drug plasma level, the above correction factor was taken into consideration.
Table I reports the plasma concentration of dextromethorphan after nasal, intravenous, and oral administration of 15 mg/dog of dextromethorphan hydrobromide salt.

Structure (SMILES): COc1ccc2c(c1)[C@]13CCCC[C@@H]1[C@H](C2)N(C)CC3 [dextromethorphan, d-3-methoxy-N-methylmorphinan]
- AUC(0-t) at 2 h (nasal, average of three dogs, read-out: AUC 0-120 min., Average ± S.E. (converted)): 472 ng·h/mL
- concentration at 1 min (nasal, dog #1, 1 min): 72.1 ng/mL
- concentration at 0.05 h (nasal, dog #1, 3 min): 323 ng/mL
- concentration at 0.1 h (nasal, dog #1, 6 min): 618 ng/mL
- concentration at 0.2 h (nasal, dog #1, 12 min): 684 ng/mL
- concentration at 20 min (nasal, dog #1, 20 min): 503 ng/mL
- concentration at 35 min (nasal, dog #1, 35 min): 276 ng/mL
- concentration at 55 min (nasal, dog #1, 55 min): 240 ng/mL
- concentration at 80 min (nasal, dog #1, 80 min): 201 ng/mL
- concentration at 2 h (nasal, dog #1, 120 min): 154 ng/mL
- concentration at 1 min (nasal, dog #2, 1 min): 89.1 ng/mL
- concentration at 0.05 h (nasal, dog #2, 3 min): 793 ng/mL
- concentration at 0.1 h (nasal, dog #2, 6 min): 733 ng/mL
- concentration at 0.2 h (nasal, dog #2, 12 min): 888 ng/mL
- concentration at 20 min (nasal, dog #2, 20 min): 260 ng/mL
- concentration at 35 min (nasal, dog #2, 35 min): 201 ng/mL
- concentration at 55 min (nasal, dog #2, 55 min): 170 ng/mL
- concentration at 80 min (nasal, dog #2, 80 min): 183 ng/mL
- concentration at 2 h (nasal, dog #2, 120 min): 141 ng/mL
- concentration at 1 min (nasal, dog #3, 1 min): 84.2 ng/mL
- concentration at 0.05 h (nasal, dog #3, 3 min): 428 ng/mL
- concentration at 0.1 h (nasal, dog #3, 6 min): 493 ng/mL
- concentration at 0.2 h (nasal, dog #3, 12 min): 385 ng/mL
- concentration at 20 min (nasal, dog #3, 20 min): 263 ng/mL
- concentration at 35 min (nasal, dog #3, 35 min): 165 ng/mL
- concentration at 55 min (nasal, dog #3, 55 min): 129 ng/mL
- concentration at 80 min (nasal, dog #3, 80 min): 93.3 ng/mL
- concentration at 2 h (nasal, dog #3, 120 min): 108 ng/mL
- AUC(0-t) at 2 h (nasal, individual dogs, read-out: AUC 0-120 min., Individual AUC (converted)): 568 ng·h/mL
- bioavailability at 2 h (nasal): 110%
- bioavailability at 2 h (oral): 30.2%
- concentration at 1 min (iv, dog #1, 1 min): 1530 ng/mL
- concentration at 0.05 h (iv, dog #1, 3 min): 927 ng/mL
- concentration at 0.1 h (iv, dog #1, 6 min): 708 ng/mL
- concentration at 0.2 h (iv, dog #1, 12 min): 482 ng/mL
- concentration at 20 min (iv, dog #1, 20 min): 331 ng/mL
- concentration at 35 min (iv, dog #1, 35 min): 296 ng/mL
- concentration at 55 min (iv, dog #1, 55 min): 171 ng/mL
- concentration at 80 min (iv, dog #1, 80 min): 134 ng/mL
- concentration at 2 h (iv, dog #1, 120 min): 144 ng/mL
- concentration at 1 min (iv, dog #2, 1 min): 1590 ng/mL
- concentration at 0.05 h (iv, dog #2, 3 min): 952 ng/mL
- concentration at 0.1 h (iv, dog #2, 6 min): 532 ng/mL
- concentration at 0.2 h (iv, dog #2, 12 min): 349 ng/mL
- concentration at 20 min (iv, dog #2, 20 min): 229 ng/mL
- concentration at 35 min (iv, dog #2, 35 min): 166 ng/mL
- concentration at 55 min (iv, dog #2, 55 min): 146 ng/mL
- concentration at 80 min (iv, dog #2, 80 min): 165 ng/mL
- concentration at 2 h (iv, dog #2, 120 min): 141 ng/mL
- concentration at 1 min (iv, dog #3, 1 min): 1490 ng/mL
- concentration at 0.05 h (iv, dog #3, 3 min): 907 ng/mL
- concentration at 0.1 h (iv, dog #3, 6 min): 430 ng/mL
- concentration at 0.2 h (iv, dog #3, 12 min): 322 ng/mL
- concentration at 20 min (iv, dog #3, 20 min): 187 ng/mL
- concentration at 35 min (iv, dog #3, 35 min): 102 ng/mL
- concentration at 55 min (iv, dog #3, 55 min): 81.4 ng/mL
- concentration at 80 min (iv, dog #3, 80 min): 46.2 ng/mL
- concentration at 2 h (iv, dog #3, 120 min): 37.3 ng/mL
- AUC(0-t) at 2 h (iv, intravenous, average of three dogs, read-out: AUC 0-120 min., Average ± S.E. (converted)): 431 ng·h/mL
- AUC(0-t) at 2 h (iv, intravenous, individual dogs, read-out: AUC 0-120 min., Individual AUC (converted)): 537 ng·h/mL
- concentration at 20 min (po, dog #1, 20 min): 7.5 ng/mL
- concentration at 35 min (po, dog #1, 35 min): 43.4 ng/mL
- concentration at 55 min (po, dog #1, 55 min): 73.6 ng/mL
- concentration at 80 min (po, dog #1, 80 min): 80.1 ng/mL
- concentration at 2 h (po, dog #1, 120 min): 74.7 ng/mL
- concentration at 3 h (po, dog #1, 180 min): 63.3 ng/mL
- concentration at 0.1 h (po, dog #2, 6 min): 18.5 ng/mL
- concentration at 0.2 h (po, dog #2, 12 min): 40 ng/mL
- concentration at 20 min (po, dog #2, 20 min): 62.9 ng/mL
- concentration at 35 min (po, dog #2, 35 min): 94.4 ng/mL
- concentration at 55 min (po, dog #2, 55 min): 92.3 ng/mL
- concentration at 80 min (po, dog #2, 80 min): 86.8 ng/mL
- concentration at 2 h (po, dog #2, 120 min): 86 ng/mL
- concentration at 3 h (po, dog #2, 180 min): 85.7 ng/mL
- concentration at 20 min (po, dog #3, 20 min): 18.4 ng/mL
- concentration at 35 min (po, dog #3, 35 min): 47.6 ng/mL
- concentration at 55 min (po, dog #3, 55 min): 65 ng/mL
- concentration at 80 min (po, dog #3, 80 min): 95.5 ng/mL
- concentration at 2 h (po, dog #3, 120 min): 91.5 ng/mL
- concentration at 3 h (po, dog #3, 180 min): 53.4 ng/mL
- AUC(0-t) at 2 h (po, oral, average of three dogs, read-out: AUC 0-120 min., Average ± S.E. (converted)): 130 ng·h/mL
- AUC(0-t) at 2 h (po, oral, individual dogs, read-out: AUC 0-120 min., Individual AUC (converted)): 110 ng·h/mL
- AUC 0-120 min., Individual AUC (intravenous, individual dogs): 27597.7 ng eq. ml-^1 min and 17668.5 ng eq. ml-^1 min
- absorption after nasal administration vs standard oral route (nasal vs oral): more rapid and more complete absorption
- blood level after nasal administration (nasal, 15 mg dose, about 5 minutes to about 2 hours, vs injected dose (FIG. 1)): blood levels comparable to an injected dose
- AUC 0-120 min., Individual AUC (nasal, individual dogs): 30735.4 ng eq. ml-^1 min and 20139.0 ng eq. ml-^1 min
- Plasma Concentration (oral, dog #1, 1 min): 0 ng eq./ml
- Plasma Concentration (oral, dog #1, 3 min): 0 ng eq./ml
- Plasma Concentration (oral, dog #1, 6 min): 0 ng eq./ml
- Plasma Concentration (oral, dog #1, 12 min): 0 ng eq./ml
- Plasma Concentration (oral, dog #2, 1 min): 0 ng eq./ml
- Plasma Concentration (oral, dog #2, 3 min): 0 ng eq./ml
- Plasma Concentration (oral, dog #3, 1 min): 0 ng eq./ml
- Plasma Concentration (oral, dog #3, 3 min): 0 ng eq./ml
- Plasma Concentration (oral, dog #3, 6 min): 0 ng eq./ml
- Plasma Concentration (oral, dog #3, 12 min): 0 ng eq./ml
- AUC 0-120 min., Individual AUC (oral, individual dogs): 9356.5 ng eq. ml-^1 min and 7441.6 ng eq. ml-^1 min
- blood level after oral administration (oral, same dosage level (15 mg), FIG. 1): considerably lower blood levels
